Experiments:
GPR55 = GPR55 (Homo sapiens, UniProt Q9Y2T6); details: cited from earlier work
CB1 and CB2 receptors = details: comparison of the two receptors; cited from earlier work
5-HT1A receptor = molecular target: T1, 5-HT1A receptor (Homo sapiens, UniProt P08908); details: cited from earlier work
T1 sequence (P08908 1-422): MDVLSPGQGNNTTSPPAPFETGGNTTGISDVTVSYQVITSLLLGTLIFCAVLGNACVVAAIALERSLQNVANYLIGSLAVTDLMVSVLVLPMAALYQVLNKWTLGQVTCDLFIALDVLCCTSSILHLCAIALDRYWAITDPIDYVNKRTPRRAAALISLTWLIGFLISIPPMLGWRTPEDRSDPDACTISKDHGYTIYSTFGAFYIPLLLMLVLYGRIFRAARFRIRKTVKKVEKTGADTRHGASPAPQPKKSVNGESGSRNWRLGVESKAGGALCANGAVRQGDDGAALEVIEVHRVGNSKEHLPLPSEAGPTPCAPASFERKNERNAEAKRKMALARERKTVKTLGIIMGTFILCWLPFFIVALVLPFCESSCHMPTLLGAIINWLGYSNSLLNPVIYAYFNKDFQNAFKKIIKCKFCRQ

[1] = tested on: cancer patients suffering from advanced symptoms and/or side effects of chemotherapy; assay: Inventors' experiments: low dose inhaled THC, at least two hours between doses; format: in vivo, human
Procedure: It has been shown by inventors in experiments performed that an inhaled THC dose of 0.2-2 mg may provide sufficient symptom alleviation for a time period of at least 2 hours, at least 3 hours, at least 4 hours, at least 6 hours or intermediate or longer time periods. […] Other examples of symptoms which may be alleviated by prescribing a low dose regimen may include adverse effects of chemotherapy and/or vomiting and/or weight loss and/or insomnia and/or euphoria and/or drowsiness and/or psychomotor effects and/or cognitive effects, and/or agitation and/or depression.
Cancer patients suffering from advanced symptoms and/or side effects of chemotherapy were treated in accordance with the above described regimen, being delivered a dose of between 0.2-2 mg THC at a single delivery event and waiting at least two hours before the next dose. The patients voluntarily reported their conditions.
In a first case, a cancer patient was admitted to hospital for chemotherapy. They were previously prescribed cannabis for pain, vomiting, nausea and weight loss, which they took by smoking cigarettes. […] In the experiment, the patient was prescribed 3×0.5 mg THC per day, delivered using an inhaler device for example as described hereinabove. The first dose was to be taken 30 minutes before chemotherapy. The patient was allowed to take additional inhalations as needed. […] The patient inhaled the 3 prescribed doses only, and no other medication was prescribed or taken. Later, the same patient readmitted to hospital for an additional round of chemotherapy. This time they chose to inhale THC in four 0.5 mg doses, a first dose in the morning before chemotherapy, second and third doses taken concomitantly at midday (amounting to a single 1 mg dose) and a fourth dose in the evening.
In a second case, a cancer patient was admitted to the hospital for severe pain and in order to resume treatment that they chose to terminate earlier. They were previously prescribed cannabis for pain, cachexia and nausea, in addition to other drugs. Throughout the treatment, they received a continuous morphine drip (400-600 mg) with additional morphine treatment upon need. Before being hospitalized, they had not eaten for a week, suffered from sleep deprivation and was depressed. In the hospital they were provided with an inhaler for example as described hereinabove and during the first day of use they inhaled 0.5 mg THC doses 18 times a day, which included 4 previously prescribed doses of 0.5 mg and many demands for additional pain relief. On the next day they reduced the intake to 1 mg inhalations, 4 times a day, continuing for a period of 8 days.

[2] = tested on: nausea of a patient undergoing chemotherapy; assay: FIG. 11: nausea of a chemotherapy patient treated with 0.5 mg inhaled THC doses; format: in vivo, human; details: first 0.5 mg THC dose 30 minutes before chemotherapy
Procedure: FIG. 11 is a graphical representation of the treatment effect achieved by pulmonary delivery of 0.5 mg THC doses, delivered at time intervals of at least two hours, according to some embodiments of the invention.
In this example, nausea levels of a patient undergoing chemotherapy are shown, as indicated by the arbitrary Y-axis scale. The black line depicts a typical nausea effect that is often witnessed when no special anti-nausea treatment is provided (optionally other than the conventional prophylactic treatment provided normally intravenously in chemotherapy sessions).
Chemotherapy commenced at 7:00 AM, as indicated by the black arrow. […] It may remain high when not treated or even with conventional treatment, although the degree of nausea may fluctuate.
The gray line depicts nausea levels under treatment with 0.5 mg doses of THC, delivered in intervals of at least two hours, indicated by the grey triangles. […] Two additional doses of 0.5 mg THC each, delivered at 12:30 and at 19:00, sufficed to allow the patient to combat the nausea throughout the day.

[3] = cited from earlier work
pain = assay: FIG. 10: pain treated with 0.5 mg inhaled THC doses at intervals of at least two hours; format: in vivo, human
Procedure: FIG. 10 is a graphical representation of a regimen for the treatment of pain by pulmonary delivery of 0.5 mg THC doses delivered in time intervals of at least two hours, according to some embodiments of the invention.
In this use over a time period of 16 hours, 4 doses of 0.5 mg THC each were provided at time intervals of at least two hours between sequential doses, indicated by the grey triangles. The black line represents the symptom level, in this case pain, and the grey line represents psychoactive effects.
The x-axis represents the time of day, and the y-axis represents an arbitrary scale for indicating symptom severity and level of psychoactivity. The scale represents, based on user reports, a grade of the symptoms and a grade of the psychoactive effects, for example compared to a baseline report collected from the patient before treatment.

[4] = single inhaled cannabis dose, Syqe Inhaler

Sequence of GPR55 (Q9Y2T6 whole entry, species assumed): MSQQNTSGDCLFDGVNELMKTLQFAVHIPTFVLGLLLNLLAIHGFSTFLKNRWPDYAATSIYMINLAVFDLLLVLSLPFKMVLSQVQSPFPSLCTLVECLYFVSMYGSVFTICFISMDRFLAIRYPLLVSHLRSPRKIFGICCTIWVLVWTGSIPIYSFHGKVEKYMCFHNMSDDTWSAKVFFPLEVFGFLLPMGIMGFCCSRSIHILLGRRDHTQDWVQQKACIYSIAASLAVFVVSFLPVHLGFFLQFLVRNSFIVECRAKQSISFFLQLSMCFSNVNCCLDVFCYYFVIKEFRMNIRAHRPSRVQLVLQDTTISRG

| SMILES | action at GPR55 (GPR55) | affinity for the CB1 and CB2 receptors (CB1 and CB2 receptors) | action at 5-HT1A receptor (5-HT1A receptor) | eating ([1]; cancer patient, 0.5 mg THC 18 times on first day, then 1 mg 4 times a day for 8 days, with morphine drip) | mood ([1]; cancer patient, 3×0.5 mg THC per day by inhaler) | mood ([1]; cancer patient, inhaled THC with morphine drip) | time period of sufficient symptom alleviation ([1]; inhaled THC dose of 0.2-2 mg) | treatment outcome in additional round of chemotherapy ([1]; same patient, four 0.5 mg inhaled THC doses) | maximum nausea level reached [2] | onset of nausea [2] | Tmax±SD ([3]; single 15.1±0.1 mg dose of cannabis inhaled with Syqe Inhaler, eight patients) [min] | interindividual variability of Cmax [3, 4] [%] | plasma Cmax increase per mg Δ(9)-THC administered [3, 4] [ng/mL/mg THC] | time after dose at which pain level begins to rise again (pain; 0.5 mg THC inhaled) | pain level after first dose (pain; 0.5 mg THC inhaled at 6:30, arbitrary scale from user reports) | psychoactivity after first dose (pain; 0.5 mg THC inhaled, arbitrary scale from user reports) |
| --- | --- | --- | --- | --- | --- | --- | --- | --- | --- | --- | --- | --- | --- | --- | --- | --- |
| C=C(C)[C@@H]1CCC(C)=C[C@H]1c1c(O)cc(CCCCC)cc1O [CBD, Cannabidiol] | antagonist | greater affinity for the CB2 receptor than for the CB1 receptor | 5-HT1A receptor agonist |  |  |  |  |  |  |  |  |  |  |  |  |  |
| CCCCCc1cc(O)c2c(c1)OC(C)(C)[C@@H]1CCC(C)=C[C@@H]21 [THC, Δ9-tetrahydrocannabinol] |  | approximately equal affinity for the CB1 and CB2 receptors |  | ate 3 meals per day | significantly improved mood | significant mood improvement | at least 2 hours | effective | significant reduction in the maximum level reached | significant delay in the onset of nausea | 3 ± 1 | 25.3 | 12.3 | about 2 hours | effective to dramatically reduce the pain level | A rise in psychoactivity occurs |

Reference: patent US12582666B2, “Low dose therapeutic treatment” (Syqe Medical Ltd., priority 2016, dated 2026)
